Here are results for 5 molecules from US8466273B2, “Hepatitis C virus inhibitors” (priority 2008, dated 2013).

One data set relates to R6FLR-N cells. Put plainly: Cytotoxic activity against HCV-replicating cells (Cell Counting Kit-8 / WST), R6FLR-N. In kind it is cell-based. How it is done: In the same manner as described above, the siRNA were reversely transfected into R6FLR-N cells in a 96-well plate (Falcon). After incubation for 24, 48, and 72 hours, the number of viable cells was counted by a chromogenic reaction at 37° C. for 1 hour using Cell Counting Kit-8 (DOJINDO) following the manufacturer's protocol. The results are expressed relative to the cell survival rate in the groups treated with the control siRNAs defined as 100%. The experiment was performed in triplicate, and the average±S.D. was graphically shown. Statistical analysis was performed by Student's t-test.
FLR3-1 cells and R6FLR-N cells were incubated with the rabbit anti-BGT-1 polyclonal antibody or mouse anti-AKR1C1 polyclonal antibody described above for 72 hours. After incubation, the OD450/650 was measured by a chromogenic reaction at 37° C. for 1 hour using Cell Counting Kit-8 (DOJINDO) following the manufacturer's protocol. Normal rabbit serum was used as a control of the anti-BGT-1 antibody, and normal mouse serum was used as a control of the anti-AKR1C1 antibody. Each antibody was diluted at 1:100-1:10000 in 3% BSA/PBS. The experiment was performed in triplicate, and the average±S.D. was graphically shown. Statistical analysis was performed by Student's t-test.
(§1) In the same manner as described above, the cytotoxic activity of tiagabine (1 mM), NNC05-2090 (0.1-10 μM), and flufenamic acid (1 μM-1 mM) against HCV-replicating cells was evaluated by the WST assay. The experiment was performed in triplicate, and the average±S.D. was graphically shown. Statistical analysis was performed by Student's t-test.
Background: Tetrazolium assays rely on reduction of a dye to a coloured formazan, in cell work by metabolically active cells.

The test system of data set [1] is HCV replication in R6FLR-N cells. Put plainly: HCV replication activity by luciferase assay in R6FLR-N replicon cells. In kind it is cell-based, Hepatitis C virus (genotype 1b). The following applies: for replication of HCV (luminescence relative to control siRNA group defined as 100%): 4.2 nM siRNA, 72 hours post-treatment; for minimal effective concentration showing a significant inhibitory effect against HCV replication vs. the control siRNAs: data not shown. The source says: The inhibitory effect against HCV replication can be determined by using HCV replicon cells (Lohmann et al., Science, 1999, 285 (5424):110-113). HCV replicon cells bear a luciferase gene as an indicator gene fused to a nonstructural protein (NS) region necessary for the replication of HCV. HCV replication activity can be measured by luciferase assays. Viral inhibitory activity can also be evaluated by using HCV infection systems (Wakita et al., Nat. Med. 2005, 11 (7), 791-796).
In this study, HCV-replicating cells (FLR3-1 and R6FLR-N) established from Huh-7 replicon cells (Lohmann et al., Science, 1999, 285 (5424):110-3) containing a luciferase-neo fusion gene and three HCV nonstructural protein regions (NS3-NS5b) after G418 selection were used. The use of these cells allows HCV replication activity to be measured by a luciferase assay. The HCV-replicating cells (FLR3-1 or R6FLR-N) were reverted by treatment with interferon α (100 IU/ml) for 72 hours or more to lower the HCV replication level and used as control cells (see Guo J T, Bichko V V, Seeger C., J. Virol. 2001, 75 (18):8516-23). The cells were incubated in Dulbecco's modified Eagle's medium (DMEM) GlutaMax I containing penicillin (100 U/ml), streptomycin (100 μg/ml), G418 (500 μg/ml), and 10% FCS (SIGMA).
The reverse transfection of the siRNAs was performed as follows. In each well of a 96-well plate (Falcon) containing Opti-MEM I medium was added each siRNA at a final concentration of 4.2, 12.6, and 25.2 nM and the plate was gently shaken. Lipofectamine™ RNAiMAX was mixed before use and added to the well (0.1 μl/well), and the plate was gently shaken and allowed to stand for 10-20 minutes at room temperature. R6FLR-N cells were plated at a density of 5×10^3 cells/well and incubated at 37° C. in 5% CO2 for 5 hours. The culture medium was replaced with 10% DMEM-Glutamax, and the cells were further incubated at 37° C. in 5% CO2. A plate containing the medium and Lipofectamine alone without siRNA (“Lipo”) and a plate containing the medium alone (“No”) were used as controls.
After incubation for 24, 48, and 72 hours, the HCV replication activity was measured by a luciferase assay. The replication activity is expressed relative to the luminescence intensity in the groups treated with the control siRNAs (“Ctrl”) defined as 100%. The experiment was performed in triplicate, and the average±S.D. was graphically shown. Statistical analysis was performed by Student's t-test.
FLR3-1 cells and R6FLR-N cells were incubated with a rabbit anti-BGT-1 polyclonal antibody (abcam) or a mouse anti-AKR1C1 polyclonal antibody (Abnova) for 72 hours. After incubation, the relative luminescence unit (RLU) was measured by a luciferase assay to evaluate the inhibitory activity against HCV replication. Normal rabbit serum was used as a control of the anti-BGT-1 antibody, and normal mouse serum was used as a control of the anti-AKR1C1 antibody. Each antibody was diluted at 1:100-1:10000 in 3% BSA/PBS. The experiment was performed in triplicate, and the average±S.D. was graphically shown. Statistical analysis was performed by Student's t-test.
R6FLR-N cells were also incubated with another BGT-1 inhibitor NNC05-2090 for 24-72 hours, and then analyzed by a luciferase assay in the same manner. NNC05-2090 was dissolved in DMSO at a final concentration of 0.1-10 μM (FIG. 7).
Background: Replicon systems follow genome replication, usually without infectious particles.

For the next data set, the system named is BGT-1 gene. Put plainly: Inhibition of BGT-1 gene expression by siRNA, RT-PCR. The data set is classed as cell-based, Homo sapiens. The following applies: data not shown. How it is done:
(§2) The expression of BGT-1 and AKR1C1 and the inhibition of the expression by their siRNAs were analyzed by Western blotting and PCR.
(§3) The inhibition of the expression of the BGT-1 gene and the AKR1C1 gene by their siRNAs was also verified by RT-PCR using the following primers (data not shown): […]

Data set [2] has as its system FLR3-1, R6FLR-N and JFH1 cells. The data set can be described thus: Cytotoxic activity of inhibitors by WST assay in FLR3-1, R6FLR-N and JFH1 cells. In kind it is cell-based. The method, then:
HCV-replicating cells were incubated with a BGT-1 inhibitor tiagabine or an AKR1C1 inhibitor flufenamic acid, and the inhibitory effect against HCV replication was evaluated by a luciferase assay. Tiagabine was dissolved in sterile distilled water at a final concentration of 1 mM, and flufenamic acid was dissolved in 1% EtOH at a final concentration of 1 μM-1 mM. The assay was performed after a reaction period of 24 hours in expectation of the rapid action of the inhibitors. The HCV-replicating cells used were FLR3-1, R6FLR-N (both genotype 1b) and JFH1 (genotype 2a: Kato et al., Gastroenterology, 2003, 125 (6):1808-17). The cells incubated in the medium alone were used as “controls”. The experiment was performed in triplicate, and the average±S.D. was graphically shown. Statistical analysis was performed by Student's t-test.
as §1

For a further data set, the system named is AKR1C1 gene. The data set can be described thus: Inhibition of AKR1C1 gene expression by siRNA, RT-PCR. The data set is classed as cell-based, Homo sapiens. The following applies: data not shown. How it is done: as §2, §3

Consider “siRNA of BGT-1: siRNA of the BGT-1 gene, 5′-CAACAAGAUGGAGUUUGUGCUGUCA-3′, nucleotides 120-144 (chemistry not given here)”, for which the “cytotoxic activity against HCV-replicating cells” value with R6FLR-N cells (any siRNA concentration tested (4.2, 12.6, 25.2 nM)) is recorded as “any significant cytotoxic activity was not detected”. Also, the “replication of HCV (luminescence relative to control siRNA group defined as 100%)” value in data set [1] (R6FLR-N cells) was at most 10±4%. Also, the “minimal effective concentration showing a significant inhibitory effect against HCV replication vs. the control siRNAs” value in data set [1] was found to be 0.5 nM. Also, in the data set on BGT-1 gene, the “inhibition of the expression of the BGT-1 gene by RT-PCR” value is reported as “verified”.

`O=C(O)c1ccccc1Nc1cccc(C(F)(F)F)c1` [flufenamic acid]: the “OD value as % of the value of the 0 μM group (WST assay)” value in data set [2] (100 μM, all types of HCV-replicating cells) was at most 80%.

With `Cc1ccsc1C(=CCCN1CCC[C@@H](C(=O)O)C1)c1sccc1C` [tiagabine], in data set [2] (1 mM, 24 hours, FLR3-1, R6FLR-N, JFH1 cells), the “cytotoxic activity against HCV-replicating cells (WST assay)” value was “significantly injured HCV-replicating cells in only FLR3-1 cells”.

With `COc1ccccc1C1(O)CCN(CCCn2c3ccccc3c3ccccc32)CC1` [NNC05-2090, 1-(3-(9H-carbazol-9-yl)-1-propyl)-4-(2-methoxyphenyl)-4-piperidinol, reference compound], the “OD value as % of the vehicle group (WST assay)” value in the data set on R6FLR-N cells (3 μM, 48 hours post-treatment) was “about 26%”; in the data set with R6FLR-N cells (10 μM, 24 hours post-treatment), “about 23%”. In data set [1] (10 μM, 24 hours, R6FLR-N cells), the “RLU vs. the vehicle group (DMSO)” value was 30%.

As to “siRNA of AKR1C1: siRNA of the AKR1C1 gene, 5′-AAGUAAAGCUUUAGAGGCCACCAAA-3′, nucleotides 93-117 (chemistry not given here)”, in the data set on AKR1C1 gene, the “inhibition of the expression of the AKR1C1 gene by RT-PCR” value is “verified”. In addition, in the data set on R6FLR-N cells (4.2 nM siRNA, 72 hours post-treatment), the “cell survival rate (relative to control siRNA group defined as 100%)” value worked out at 53±18%. Further, the “replication of HCV (luminescence relative to control siRNA group defined as 100%)” value in data set [1] (R6FLR-N cells) is recorded as 40±1%. For the same molecule, the “minimal effective concentration showing a significant inhibitory effect against HCV replication vs. the control siRNAs” value in data set [1] amounted to 0.5 nM.
